Measured values as given in publication PMC9321647, “Curcumin-Based β-Diketo Ligands for Ga^3+: Thermodynamic Investigation of Potential Metal-Based Drugs” (Pharmaceuticals, 2022).

Assays:
[1] = DPPH radical-scavenging assay; conditions: free ligand
Description: The antioxidant activity of compounds 4 and 5 and their Ga^3+ metal complexes at the M:L 1:1 and 1:2 molar ratio was evaluated in terms of hydrogen-donating or radical scavenging ability using a stable DPPH radical, 1,1-diphenyl-2-picrylhydrazyl radical, following the procedure previously reported. The percentage of inhibition (%In) of the DPPH radical by each sample was calculated according to the following formula: %In=A0−At/A0×100 where A0 represents the absorbance of the control (DPPH radical) at time 0, while At refers to the absorbance of the mixture antioxidant/DPPH at time t (120 min). Values of absorbance were corrected considering volume dilution. All the determinations were performed in duplicate.

[2] = Iron-chelating ability by spectrophotometric analysis / transmetalation; assay type: physicochemical; conditions: for logβ124(Fe): Fe^3+, same conditions as Ga^3+ systems
Excerpt: Compounds 4 and 5 were selected to evaluate iron-chelating ability by spectrophotometric analysis in the same conditions as the ones applied to carry out investigations on Ga^3+ systems. The calculated logβ124(Fe) values were 56.2 (2) and 58.6 (4) for 4 and 5, respectively. From the difference between the logβ values of the complexes with two metal ions, it is possible to calculate the apparent stability constant K (logK = logβ124(Fe) − logβ124(Ga)) associated with the transmetalation reaction (Equation (1)). (1) Fe^3++[Ga(H2L)2]^+ ⇆ […]+[Fe(H2L)2]^+
UV–visible spectra were recorded with a JASCO V-570 UV/Vis/NIR spectrophotometer at 298 K in the 250–600 nm spectral range employing quartz cells (1 cm optical path). To perform spectrophotometric titrations, ligands (denoted generally as L in the following) were dissolved in methanol to give a mother solution (2.50 mM), that was then diluted in water in order to obtain a final concentration of 50 μM. The metal/ligand (M:L) solutions were obtained by adding appropriate quantities of Ga(NO3)3 as methanol solutions (5–10 mM) in order to obtain the metal-to-ligand 1:1 molar ratio (L = 50 μM and V = 25 mL). For both L and M:L systems, pH (initial value of about 5) was varied by adding small amounts (<1 μL) of concentrated NaOH (4 M) up to ca. pH 11, thus to consider volume variations negligible. […] The overall protonation constants (logβqr) and the overall stability constants of metal complexes (logβpqr) were evaluated from spectrophotometric data. […] The quantities are obtained by performing error propagation calculation from the experimental errors onto the parameters. […] The error on logβ is calculated as follows: σ(logβ) = [log(β + σ) − log(β − σ)]/2.
Hydroxide species, such as [Ga(OH)2]^+, were taken into account for calculations. The hydrolysis constants for Ga^3+ are as follows: logβ1,1,0 = −3.93; logβ2,1,0 = −7.73; logβ3,1,0 = −12.38; logβ4,1,0 = −15.96; logβ32,13,0 = −66.3; logβ3,1,0(s) = −3.54 [43]; pGa is defined as (−log[Ga^3+]free) and is calculated at specific conditions (Ga^3+total = 1 μM, Ltotal = 10 μM, pH 7.4, 25 °C). […]

[3] = Spectrophotometric pH-metric titrations of Ga^3+:ligand systems (stability constants, pGa, speciation); assay type: physicochemical; conditions: for log β 112 overall stability constant (Ga^3+) / log β 124 overall stability constant (Ga^3+) / logK11 apparent formation constant (Ga^3+, M:L 1:1) / logK12 apparent formation constant (Ga^3+, M:L 1:2): 298 K; for log β 112 overall stability constant (Ga^3+) / log β 124 overall stability constant (Ga^3+): HypSpec; for logK11 apparent formation constant (Ga^3+, M:L 1:1) / logK12 apparent formation constant (Ga^3+, M:L 1:2): estimated from logβMLH; for Prevailing Species (pH 5.5) / Prevailing Species (pH 7.4): Ga^3+ complex species; for Prevailing Species (pH 7.4): ** possible formation of gallium hydroxide species; for pGa (−log[Ga^3+]free): [Ga^3+]total = 1 μM, [L]total = 10 μM, pH 7.4, 25 °C
Description: UV–visible spectra were recorded with a JASCO V-570 UV/Vis/NIR spectrophotometer at 298 K in the 250–600 nm spectral range employing quartz cells (1 cm optical path). To perform spectrophotometric titrations, ligands (denoted generally as L in the following) were dissolved in methanol to give a mother solution (2.50 mM), that was then diluted in water in order to obtain a final concentration of 50 μM. The metal/ligand (M:L) solutions were obtained by adding appropriate quantities of Ga(NO3)3 as methanol solutions (5–10 mM) in order to obtain the metal-to-ligand 1:1 molar ratio (L = 50 μM and V = 25 mL). For both L and M:L systems, pH (initial value of about 5) was varied by adding small amounts (<1 μL) of concentrated NaOH (4 M) up to ca. pH 11, thus to consider volume variations negligible. To evaluate the complexation ratio, constant additions of the M solution (10 µL each time, M = 10^–2 M) were dropped into the ligand solution (V = 25 mL, L = 50 μM) using a micropipette in order to reach different M:L molar ratios. A constant ionic strength (NaNO3, 0.1 M) was maintained in all experiments. Spectrophotometric investigations of iron(III) systems were performed in the same conditions; the Fe^3+ solution was freshly prepared in methanol starting from Fe(NO3)3·9H2O. The overall protonation constants (logβqr) and the overall stability constants of metal complexes (logβpqr) were evaluated from spectrophotometric data. The stability constants (βpqr), defined by the following equations:(3) pM^m++qL^l^−+rH^+⇌MpLqHr(mp−lq+r) (4) βpqr=[MpLqHr(mp−lq+r)]/[M^m+]^p·[L^l−]^q·[H^+]^r where L is the ligand in the completely dissociated form and H is proton, were refined using least-squares calculation in HypSpec. The results of least-squares calculation include the standard deviations and correlation coefficients of the refined parameters. The quantities are obtained by performing error propagation calculation from the experimental errors onto the parameters. The stability constant refinement furnishes least-squares estimates of the standard deviation, σ, of the stability constant β. The error on logβ is calculated as follows: σ(logβ) = [log(β + σ) − log(β − σ)]/2.
Hydroxide species, such as [Ga(OH)2]^+, were taken into account for calculations. The hydrolysis constants for Ga^3+ are as follows: logβ1,1,0 = −3.93; logβ2,1,0 = −7.73; logβ3,1,0 = −12.38; logβ4,1,0 = −15.96; logβ32,13,0 = −66.3; logβ3,1,0(s) = −3.54 [43]; pGa is defined as (−log[Ga^3+]free) and is calculated at specific conditions (Ga^3+total = 1 μM, Ltotal = 10 μM, pH 7.4, 25 °C). For the calculation of the iron(III) overall stability constants, the presence of [Fe(OH)]^2+, [Fe(OH)2]^+ and [Fe(OH)3] species was taken into account.

IC50 [1] [µM]	logβ124(Fe) [2]	log β 112 overall stability constant (Ga^3+) [3]	log β 124 overall stability constant (Ga^3+) [3]	logK11 apparent formation constant (Ga^3+, M:L 1:1) [3]	logK12 apparent formation constant (Ga^3+, M:L 1:2) [3]	Prevailing Species (pH 5.5) [3]	Prevailing Species (pH 7.4) [3]	pGa (−log[Ga^3+]free) [3]	LogK apparent stability constant of transmetalation (logβ124(Fe) − logβ124(Ga)) ([2]; Fe^3+ + [Ga(H2L)2]^+ exchange)	Compound
32	58.6 (4)	28.54 (3)	57.00 (1)	8.09	16.1	[Ga(H2L)2]^+	[Ga(H2L)2]^+	23.2		2-((4Z,6E)-5-hydroxy-7-(4-hydroxyphenyl)-4-((E)-3-(4-hydroxy-3-ethoxyphenyl) acryloyl) hepta-4,6-dien-1-yl)isoindoline-1,3-dione [Compound 5]
20	56.2 (2)	28.48 (5)	55.33 (5)	8.04	14.45	[Ga(H2L)2]^+	[Ga(H2L)2]^+	21.5	0.9(3)	COc1cc(/C=C/C(=O)C(CCCN2C(=O)c3ccccc3C2=O)C(=O)/C=C/c2ccc(O)c(OC)c2)ccc1O [Compound 4]
